Where two headings read alike, the source gives them in different places.
Columns and labels:
Experiment in all cases: selectivity profiling in a panel of 340 wild-type kinases (Reaction Biology Europe)
Type in all cases: binding
340 wild-type kinases [1] = biological target: T1, 340 wild-type kinases (Homo sapiens, UniProt O43318)
T1 construct: purchased Reaction Biology Europe
T1 sequence (O43318 1-606): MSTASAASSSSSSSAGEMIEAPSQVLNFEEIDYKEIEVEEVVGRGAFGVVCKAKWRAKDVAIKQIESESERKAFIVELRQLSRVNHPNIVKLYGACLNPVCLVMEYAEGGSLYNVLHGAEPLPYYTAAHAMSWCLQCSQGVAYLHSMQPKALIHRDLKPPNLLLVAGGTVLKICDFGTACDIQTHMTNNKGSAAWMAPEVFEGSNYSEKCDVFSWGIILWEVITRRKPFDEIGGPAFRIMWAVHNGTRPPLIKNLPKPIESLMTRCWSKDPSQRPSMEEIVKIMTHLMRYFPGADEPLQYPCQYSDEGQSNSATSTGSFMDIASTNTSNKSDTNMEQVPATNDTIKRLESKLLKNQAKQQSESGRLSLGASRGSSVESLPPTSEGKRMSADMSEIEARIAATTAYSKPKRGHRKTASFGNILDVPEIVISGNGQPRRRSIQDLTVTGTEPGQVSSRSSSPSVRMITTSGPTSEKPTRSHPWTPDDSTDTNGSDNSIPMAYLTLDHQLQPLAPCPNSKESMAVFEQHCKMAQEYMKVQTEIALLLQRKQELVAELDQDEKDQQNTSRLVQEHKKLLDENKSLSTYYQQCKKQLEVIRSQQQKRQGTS

340 wild-type kinases [2] = biological target: T2, 340 wild-type kinases (Homo sapiens, UniProt P42680)
T2 construct: purchased Reaction Biology Europe
T2 sequence (P42680 1-631): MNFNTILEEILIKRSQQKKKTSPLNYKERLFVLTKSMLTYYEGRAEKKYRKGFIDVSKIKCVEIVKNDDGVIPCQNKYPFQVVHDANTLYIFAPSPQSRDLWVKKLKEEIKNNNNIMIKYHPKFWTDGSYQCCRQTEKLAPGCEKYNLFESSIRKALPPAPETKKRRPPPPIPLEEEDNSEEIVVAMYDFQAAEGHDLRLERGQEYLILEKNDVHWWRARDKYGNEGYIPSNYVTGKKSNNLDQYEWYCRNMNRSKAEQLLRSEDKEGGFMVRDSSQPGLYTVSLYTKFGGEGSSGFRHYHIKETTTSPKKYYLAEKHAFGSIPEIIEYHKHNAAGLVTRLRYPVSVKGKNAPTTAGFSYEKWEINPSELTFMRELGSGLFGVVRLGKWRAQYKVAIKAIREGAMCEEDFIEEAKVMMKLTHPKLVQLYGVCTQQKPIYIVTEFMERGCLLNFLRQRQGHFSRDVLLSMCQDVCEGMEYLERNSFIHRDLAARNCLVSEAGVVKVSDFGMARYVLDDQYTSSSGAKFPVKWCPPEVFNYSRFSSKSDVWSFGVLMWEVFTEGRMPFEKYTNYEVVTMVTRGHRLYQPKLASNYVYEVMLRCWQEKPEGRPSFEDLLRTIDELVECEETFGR

340 wild-type kinases [3] = biological target: T3, 340 wild-type kinases (Homo sapiens, UniProt P09769)
T3 construct: purchased Reaction Biology Europe
T3 sequence (P09769 whole entry): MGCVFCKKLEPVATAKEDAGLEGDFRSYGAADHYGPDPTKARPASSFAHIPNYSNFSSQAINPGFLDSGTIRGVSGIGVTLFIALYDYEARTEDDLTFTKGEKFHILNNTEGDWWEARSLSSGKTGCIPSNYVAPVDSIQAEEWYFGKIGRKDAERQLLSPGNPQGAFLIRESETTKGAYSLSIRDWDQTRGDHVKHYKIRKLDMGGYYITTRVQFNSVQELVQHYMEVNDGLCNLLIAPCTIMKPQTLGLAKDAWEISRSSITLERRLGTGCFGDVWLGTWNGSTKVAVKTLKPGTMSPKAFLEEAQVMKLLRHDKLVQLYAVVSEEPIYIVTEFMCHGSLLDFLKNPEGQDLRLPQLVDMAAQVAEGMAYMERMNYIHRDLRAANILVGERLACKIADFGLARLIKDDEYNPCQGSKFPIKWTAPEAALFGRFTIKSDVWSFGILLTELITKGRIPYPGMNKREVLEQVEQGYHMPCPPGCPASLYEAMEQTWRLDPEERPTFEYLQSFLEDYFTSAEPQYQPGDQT

340 wild-type kinases [4] = biological target: T4, 340 wild-type kinases (Homo sapiens, UniProt Q9UK32)
T4 construct: purchased Reaction Biology Europe
T4 sequence (Q9UK32 whole entry): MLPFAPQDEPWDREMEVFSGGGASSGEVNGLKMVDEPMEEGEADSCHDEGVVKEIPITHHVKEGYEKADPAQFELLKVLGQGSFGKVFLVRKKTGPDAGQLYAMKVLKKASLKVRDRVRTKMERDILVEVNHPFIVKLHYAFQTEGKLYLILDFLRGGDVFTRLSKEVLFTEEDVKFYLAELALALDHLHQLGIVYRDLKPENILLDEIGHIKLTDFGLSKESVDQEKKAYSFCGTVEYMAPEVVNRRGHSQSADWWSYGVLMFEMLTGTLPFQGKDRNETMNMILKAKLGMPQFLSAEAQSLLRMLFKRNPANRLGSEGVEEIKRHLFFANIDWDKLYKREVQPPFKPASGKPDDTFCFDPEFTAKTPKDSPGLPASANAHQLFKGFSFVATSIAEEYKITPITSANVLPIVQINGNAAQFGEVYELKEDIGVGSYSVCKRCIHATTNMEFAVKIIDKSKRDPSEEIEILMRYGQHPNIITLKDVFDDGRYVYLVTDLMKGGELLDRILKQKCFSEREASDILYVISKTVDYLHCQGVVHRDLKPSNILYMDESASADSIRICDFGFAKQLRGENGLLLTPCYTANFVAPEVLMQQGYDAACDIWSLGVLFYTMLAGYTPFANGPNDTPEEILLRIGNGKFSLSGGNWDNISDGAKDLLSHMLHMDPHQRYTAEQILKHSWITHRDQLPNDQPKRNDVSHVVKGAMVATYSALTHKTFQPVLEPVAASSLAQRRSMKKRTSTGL

340 wild-type kinases [5] = biological target: T5, 340 wild-type kinases (Homo sapiens, UniProt P54762)
T5 construct: purchased Reaction Biology Europe
T5 sequence (P54762 18-984): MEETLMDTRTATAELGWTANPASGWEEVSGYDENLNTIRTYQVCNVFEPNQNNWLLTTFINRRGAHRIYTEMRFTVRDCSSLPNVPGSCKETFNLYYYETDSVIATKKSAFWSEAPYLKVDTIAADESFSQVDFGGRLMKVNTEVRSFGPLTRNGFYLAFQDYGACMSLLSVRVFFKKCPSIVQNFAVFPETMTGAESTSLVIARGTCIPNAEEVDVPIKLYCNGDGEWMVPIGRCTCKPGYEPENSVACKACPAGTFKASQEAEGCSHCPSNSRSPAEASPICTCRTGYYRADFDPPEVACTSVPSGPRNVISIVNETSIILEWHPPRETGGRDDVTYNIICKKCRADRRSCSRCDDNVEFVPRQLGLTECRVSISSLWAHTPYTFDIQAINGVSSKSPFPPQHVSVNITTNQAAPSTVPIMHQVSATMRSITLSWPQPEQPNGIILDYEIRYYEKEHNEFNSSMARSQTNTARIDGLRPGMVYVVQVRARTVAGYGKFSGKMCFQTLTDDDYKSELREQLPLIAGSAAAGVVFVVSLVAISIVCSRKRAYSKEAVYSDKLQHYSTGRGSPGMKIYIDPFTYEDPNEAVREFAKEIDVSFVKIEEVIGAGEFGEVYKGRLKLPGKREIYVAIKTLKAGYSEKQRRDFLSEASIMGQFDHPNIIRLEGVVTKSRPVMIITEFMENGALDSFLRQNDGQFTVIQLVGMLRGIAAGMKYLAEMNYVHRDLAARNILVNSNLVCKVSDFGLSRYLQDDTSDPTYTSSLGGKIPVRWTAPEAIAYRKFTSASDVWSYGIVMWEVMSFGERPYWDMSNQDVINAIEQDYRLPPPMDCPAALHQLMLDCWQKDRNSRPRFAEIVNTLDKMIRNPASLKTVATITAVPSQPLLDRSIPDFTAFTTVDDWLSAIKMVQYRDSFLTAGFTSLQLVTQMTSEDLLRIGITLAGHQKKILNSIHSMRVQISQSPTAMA

340 wild-type kinases [6] = biological target: T6, 340 wild-type kinases (Homo sapiens, UniProt Q15759)
T6 construct: purchased Reaction Biology Europe
T6 sequence (Q15759 whole entry): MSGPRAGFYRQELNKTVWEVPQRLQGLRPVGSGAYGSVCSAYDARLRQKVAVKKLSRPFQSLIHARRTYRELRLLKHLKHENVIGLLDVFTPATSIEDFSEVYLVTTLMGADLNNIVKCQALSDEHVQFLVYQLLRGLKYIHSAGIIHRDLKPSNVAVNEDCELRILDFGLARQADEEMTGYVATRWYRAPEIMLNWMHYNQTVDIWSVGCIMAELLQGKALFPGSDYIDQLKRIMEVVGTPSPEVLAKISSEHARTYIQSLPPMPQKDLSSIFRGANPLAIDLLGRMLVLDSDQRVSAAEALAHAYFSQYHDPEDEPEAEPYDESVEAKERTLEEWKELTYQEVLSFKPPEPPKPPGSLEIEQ

340 wild-type kinases [7] = biological target: T7, 340 wild-type kinases (Homo sapiens, UniProt O75582)
T7 construct: purchased Reaction Biology Europe
T7 sequence (O75582 whole entry): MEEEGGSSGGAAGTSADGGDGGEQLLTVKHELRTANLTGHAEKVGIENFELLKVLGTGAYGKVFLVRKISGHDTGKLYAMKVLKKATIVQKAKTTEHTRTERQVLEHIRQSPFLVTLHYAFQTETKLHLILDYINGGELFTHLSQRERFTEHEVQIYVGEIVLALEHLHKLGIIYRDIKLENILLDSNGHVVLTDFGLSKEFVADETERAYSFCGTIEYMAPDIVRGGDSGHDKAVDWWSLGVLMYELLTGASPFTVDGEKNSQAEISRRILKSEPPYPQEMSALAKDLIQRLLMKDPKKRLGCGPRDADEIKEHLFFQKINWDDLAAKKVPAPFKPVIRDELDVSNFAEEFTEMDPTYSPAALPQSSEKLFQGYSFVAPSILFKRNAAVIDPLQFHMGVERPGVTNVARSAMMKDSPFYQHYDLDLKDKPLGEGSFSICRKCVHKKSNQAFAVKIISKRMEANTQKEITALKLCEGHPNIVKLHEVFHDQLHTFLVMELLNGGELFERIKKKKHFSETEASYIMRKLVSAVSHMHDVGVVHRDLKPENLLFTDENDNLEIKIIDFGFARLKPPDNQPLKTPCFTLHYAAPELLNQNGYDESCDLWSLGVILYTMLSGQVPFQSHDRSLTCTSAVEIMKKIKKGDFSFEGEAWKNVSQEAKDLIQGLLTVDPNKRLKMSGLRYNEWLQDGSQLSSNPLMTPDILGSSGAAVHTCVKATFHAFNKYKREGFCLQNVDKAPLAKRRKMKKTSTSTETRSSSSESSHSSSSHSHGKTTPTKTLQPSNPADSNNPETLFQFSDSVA

CNC(=O)c1ccc2c(c1)C(=O)c1ccc(Nc3ccc(F)c(NC(=O)C4CC4)c3)cc1CC2 [Compound 2015]
remaining activity at 0.2 µM (340 wild-type kinases [1]; 0.2 µM 2015, read-out: MAP3K7/MAP3K7IP1 residual activity): 96.8% | remaining activity at 1 µM (340 wild-type kinases [1]; 1 µM 2015, read-out: MAP3K7/MAP3K7IP1 residual activity): 93.9% | remaining activity at 1 µM (340 wild-type kinases [1]; MAP3K7/MAP3K7IP1, 1 µM, read-out: residual activity): 93.9% | remaining activity at 0.2 µM (340 wild-type kinases [2]; 0.2 µM 2015, read-out: TEC residual activity): 120% | remaining activity at 1 µM (340 wild-type kinases [2]; 1 µM 2015, read-out: TEC residual activity): 108% | remaining activity at 0.2 µM (340 wild-type kinases [2]; TEC, 0.2 µM, read-out: residual activity): 120% | remaining activity at 1 µM (340 wild-type kinases [2]; TEC, 1 µM, read-out: residual activity): 108% | remaining activity at 0.2 µM (340 wild-type kinases [3]; 0.2 µM 2015, read-out: FGR residual activity): 101% | remaining activity at 1 µM (340 wild-type kinases [3]; 1 µM 2015, read-out: FGR residual activity): 102% | remaining activity at 0.2 µM (340 wild-type kinases [3]; FGR, 0.2 µM, read-out: residual activity): 101% | remaining activity at 1 µM (340 wild-type kinases [3]; FGR, 1 µM, read-out: residual activity): 102% | remaining activity at 0.2 µM (340 wild-type kinases [4]; 0.2 µM 2015, read-out: RPS6KA6 residual activity): 89.7% | remaining activity at 1 µM (340 wild-type kinases [4]; 1 µM 2015, read-out: RPS6KA6 residual activity): 81.3% | remaining activity at 0.2 µM (340 wild-type kinases [4]; RPS6KA6, 0.2 µM, read-out: residual activity): 89.7% | remaining activity at 1 µM (340 wild-type kinases [4]; RPS6KA6, 1 µM, read-out: residual activity): 81.3% | remaining activity at 0.2 µM (340 wild-type kinases [5]; 0.2 µM 2015, read-out: EPHB1 residual activity): 118% | remaining activity at 1 µM (340 wild-type kinases [5]; 1 µM 2015, read-out: EPHB1 residual activity): 103% | remaining activity at 0.2 µM (340 wild-type kinases [5]; EPHB1, 0.2 µM, read-out: residual activity): 118% | remaining activity at 1 µM (340 wild-type kinases [5]; EPHB1, 1 µM, read-out: residual activity): 103% | remaining activity at 0.2 µM (340 wild-type kinases [6]; 0.2 µM 2015, read-out: p38beta residual activity): 1.85% | remaining activity at 1 µM (340 wild-type kinases [6]; 1 µM 2015, read-out: p38beta residual activity): 1.94% | remaining activity at 0.2 µM (340 wild-type kinases [6]; p38beta, 0.2 µM, read-out: residual activity): 1.85% | remaining activity at 1 µM (340 wild-type kinases [6]; p38beta, 1 µM, read-out: residual activity): 1.94% | remaining activity at 0.2 µM (340 wild-type kinases [7]; 0.2 µM 2015, read-out: RPS6KA5 residual activity): 93.6% | remaining activity at 0.2 µM (340 wild-type kinases [7]; RPS6KA5, 0.2 µM, read-out: residual activity): 93.6% | remaining activity at 1 µM (340 wild-type kinases [7]; RPS6KA5, 1 µM, read-out: residual activity): 90.2%
